Experimental data published in article PMC12955800 (ACS chemical neuroscience, 2021).
Entries after “also recorded” stand apart in the source; their conditions may differ.

What was measured:
[1] = tested on: A. suum ovijector tissue; assay: Ascaris suum ovijector bioassay
[2] = tested on: C. elegans (acs-20 cuticle defective mutant); assay: C. elegans body length assay; assay type: in vivo, Caenorhabditis elegans; conditions: 100 μM synthetic As-FLP-18A, 96 h, 20 °C, vs S-medium, n > 9 nematodes
[3] = tested on: C. elegans (acs-20 cuticle defective mutant); assay: wMicroTracker motility assay; assay type: in vivo, Caenorhabditis elegans; conditions: 10 μM synthetic As-FLP-18A, M9, 12 h, n > 4 wells
[4] = synthetic As-FLP-18A, 10 μM, HBSS, 10 min

Substance	effect on ovijector contractility ([1]; truncated synthetic peptide GFGDEMSMPGVLR, 10 μM)	effect on ovijector muscle ([1]; synthetic As-FLP-18A, 1 nM to 10 μM, 10 min)	effect on ovijector muscle ([1]; synthetic As-FLP-18A, 10 nM to 1 μM)	response type (RT) on ovijector ([1]; synthetic As-FLP-18A, 1 μM to 10 nM, 10 min)	effect on ovijector muscle ([1]; synthetic As-FLP-18A, 1 μM, RT-2-like)	preparations with RT-1 response [1, 4]	preparations with RT-2 response [1, 4]	C. elegans growth (body length) [2]	C. elegans motility (locomotory activity) [3]
GFGDEMSMPGVLR [truncated As-FLP-18A]	lacks biological activity in A. suum muscle physiology assays								
GFGDEMSMPGVLRF-NH2 [As-FLP-18A]		concentration dependent myoexcitatory effects	consistent excitatory effects	RT-2 responses only	transient muscle contraction followed by muscle paralysis	64.2 % of preparations	35.7 % of preparations	this effect was mirrored; also recorded: significantly reduced	significant inhibition of locomotion; also recorded: significantly reduced
